Measured values: patent US10653705B2, “Applications for estrone in preparing anti-ovarian cancer and/or breast cancer products” (SHANGHAI JIAO TONG UNIVERSITY, priority 2015, dated 2020)

How the values were obtained:
Assay type in all cases: cell-based
[1] = test system: SKOV-3 ovarian cancer cells; test: CellTiter-Glo luminescent cell viability assay, SKOV-3 ovarian cancer cells
Excerpt: (§1) In example 1, CELLTITER-GLO was used to test estrone against ovarian cancer and/or breast cancer m) A cell counter was used to count the number of suspended cells and adjust the cell suspension to an appropriate density in the plate to carry out cell plating experiments. SKOV-3 cells were handled as described above, and a SKOV-3 96-well cell culture plate was obtained. The complete medium for SKOV-3 cells was McCOY'S 5A (a live product), Cat #16600082, with a cells/well density of 12000. 2. The drug analyte estrone was prepared and administered (200× final concentration): a) DMSO was used to dilute the analyte estrone to 20 mM for use. b) 79 μL of the 20 mM analyte prepared in step a) was added to the first well in the first row of the dilution plate, and then 54 μL of DMSO solution was added to the second through ninth wells of the first row. […] The final concentrations (μM) of the analyte drug in wells 2-10 in FIG. 1 are, in order: 100, 31.64557, 10.01442, 3.16912, 1.002886, 0.317369, 0.100433, 0.031783, 0.010058; B. CELLTITER-GLO Luminescent Cell Viability Assay System a) Before testing, the SKOV-3 96-well drug screening plate described in 3 above was stabilized to room temperature for 20-30 minutes. c) 100 μl of CellTiter-Glo reagent (prepared as described in 1 above) was added to all drug screening plates and mixed evenly. d) It was thoroughly oscillated in a 96-well microplate oscillator for 2 minutes to allow the cells to undergo full lysis. e) It was stored away from light at room temperature for 15 minutes before carrying out luminescent signal detection to ensure signal stability. f) An EnSpire multi-function plate reader was used at 570 nm to read the luminescent signals. g) Data was processed and analyzed.

[2] = test system: HCC1395 breast cancer cells; test: CellTiter-Glo luminescent cell viability assay, HCC1395 breast cancer cells; details: Homo sapiens, 72 hours
Experimental: as §1, with “experiments.” for “experiments. SKOV-3 cells were handled as described above, and a SKOV-3 96-well cell culture plate was obtained. The complete medium for SKOV-3 cells was McCOY'S 5A (a live product), Cat #16600082, with a cells/well density of 12000.”, “System” for “System a) Before testing, the SKOV-3 96-well drug screening plate described in 3 above was stabilized to room temperature for 20-30 minutes.”, “analyzed. […]” for “analyzed.”

[3] = test system: NCI-H1437 human lung cancer cells; test: CellTiter-Glo luminescent cell viability assay, NCI-H1437 human lung cancer cells; details: 72 hours
[4] = test system: NCI-H460 large-cell lung cancer cells; test: CellTiter-Glo luminescent cell viability assay, NCI-H460 large-cell lung cancer cells; details: Homo sapiens, 72 hours

## C[C@]12CC[C@@H]3c4ccc(O)cc4CC[C@H]3[C@@H]1CCC2=O [Estrone]
[1]; Homo sapiens, SK-OV-3, SKOV-3 cells, 72 hours, CellTiter-Glo
  IC50: 21.5 µM
[1]; Homo sapiens, SK-OV-3, SKOV-3 cells, 72 hours, CellTiter-Glo, FIG. 2
  EC50: 16.4 µM
[1]; compared with the lung cancer cell lines of Table 1
  effect on the proliferation of ovarian cancer cells: specific inhibitory effect
[2]
  IC50: 68 µM
[2]; FIG. 3
  EC50: 74000 µM
[3]
  IC50: ≥ 100 µM
[4]
  IC50: ≥ 100 µM
